# Source: patent US12240840B2, “Amide-substituted heterocyclic compounds for the treatment of conditions related to the modulation of IL-12, IL-23 and/or IFN-alpha” (BRISTOL-MYERS SQUIBB COMPANY, priority 2018, dated 2025)
# Tested on: IFNα-induced pSTAT5 (pY694) in CD3 positive cells of human whole blood
# Assay: IFNα-Induced STAT Phosphorylation in Human Whole Blood
# Assay type: cell-based
# Details: Homo sapiens, 1 h compound incubation, 1000 U/mL recombinant human IFNα A/D for 15 min, pSTAT5 in CD3 positive population, read-out: Human WB IFNα-Induced Stat Phosph. (IC50)
# In short: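 Read-out is median fluorescence intensity of pSTAT5 (pY694) in the CD3-positive gate, by flow cytometry after fix/lyse and permeabilization. Before that, whole human blood anticoagulated with EDTA or ACD-A received compound for an hour and 1000 U/mL IFNα A/D for 15 min.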
row,SMILES,IC50 [µM]
1,[2H]C([2H])([2H])NC(=O)c1nnc(NC(=O)C2CC2)cc1Nc1cccc(-c2nc(C3(NC(=O)OC(C)(C)C)CC3)no2)c1OC [Example 150],> 10
2,[2H]C([2H])([2H])NC(=O)c1cnc(NC(=O)C2CC2)cc1Nc1cccc(-c2cnn(CCNC(C)=O)n2)c1OC [Example 439],0.44
3,[2H]C([2H])([2H])NC(=O)c1nnc(NC(=O)C2CC2)cc1Nc1cccc(-c2ncc(CC(=O)NCCOC)s2)c1OC [Example 255],0.62
4,[2H]C([2H])([2H])NC(=O)c1nnc(NC(=O)C2CC2)cc1Nc1cccc(-c2ncc(C(=O)NCCC(C)C)s2)c1OC [Example 305],0.22
5,[2H]C([2H])([2H])NC(=O)c1nnc(NC(=O)C2CC2)cc1Nc1cccc(-c2nc([C@H](CO)NC(C)=O)no2)c1OC [Example 199],1.08
6,[2H]C([2H])([2H])NC(=O)c1nnc(NC(=O)C2CC2)cc1Nc1cccc(-c2nc(CN3CCNCC3)no2)c1OC [Example 126],0.63
7,[2H]C([2H])([2H])NC(=O)c1nnc(NC(=O)C2CC2)cc1Nc1cccc(-c2nc(C(OCC)OCC)no2)c1OC [Example 224],0.88
8,[2H]C([2H])([2H])NC(=O)c1nnc(NC(=O)C2CC2)cc1Nc1cccc(-c2ncc(C(=O)NCC34CCN(CC3)CC4)s2)c1OC [Example 287],1.26
9,[2H]C([2H])([2H])NC(=O)c1nnc(NC(=O)C2CC2)cc1Nc1cccc(-c2nc(C)c(C(=O)NCCOC)s2)c1OC [Example 366],0.51
10,[2H]C([2H])([2H])NC(=O)c1cnc(NC(=O)C2CC2)cc1Nc1cccc(-c2cnn(CCNS(C)(=O)=O)n2)c1OC [Example 436],0.3
11,[2H]C([2H])([2H])NC(=O)c1nnc(NC(=O)C2CC2)cc1Nc1cc(F)cc(-c2cc(C(=O)N3CCC(N(C)C)CC3)n(C)n2)c1OC [Example 515],0.29
12,[2H]C([2H])([2H])NC(=O)c1nnc(NC(=O)C2CC2)cc1Nc1cccc(-c2cc(C(=O)N(C)CCN(C)C)n(C)n2)c1OC [Example 526],0.52
13,[2H]C([2H])([2H])NC(=O)c1nnc(NC(=O)C2CC2)cc1Nc1cccc(-c2ncc(C(=O)N3C4CCC3CN(C)C4)s2)c1OC [Example 288],0.09
14,[2H]C([2H])([2H])NC(=O)c1nnc(NC(=O)C2CC2)cc1Nc1cccc(-c2nc(CCO)no2)c1OC [Example 225],0.35
15,[2H]C([2H])([2H])NC(=O)c1nnc(NC(=O)C2CC2)cc1Nc1cccc(-c2cc(C)nn2CCNC(=O)COC)c1OC [Example 461],0.22
16,[2H]C([2H])([2H])NC(=O)c1nnc(NC(=O)C2CC2)cc1Nc1cccc(-c2nc([C@H](CO)NC(=O)COC)no2)c1OC [Example 202],1.8
17,[2H]C([2H])([2H])NC(=O)c1nnc(NC(=O)C2CC2)cc1Nc1cc(F)cc(-c2cc(C(=O)N3CCS(=O)(=O)CC3)n(C)n2)c1OC [Example 503],0.86
18,[2H]C([2H])([2H])NC(=O)c1nnc(NC(=O)C2CC2)cc1Nc1cccc(-c2nc(CC(C)C)no2)c1OC [Example 122],> 10

row,SMILES,IC50 [µM]
1,[2H]C([2H])([2H])NC(=O)c1nnc(NC(=O)C2CC2)cc1Nc1cccc(-c2nc(C3(NC(=O)CC#N)CC3)no2)c1OC [Example 151],1.55
2,[2H]C([2H])([2H])NC(=O)c1nnc(NC(=O)C2CC2)cc1Nc1cc(F)cc(-c2cc(C(C)(C)O)n(C)n2)c1OC [Example 489],0.29
3,COc1c(Nc2cc(N)nnc2C(N)=O)cccc1-c1noc(C(=O)NCCC2CCCN2C)n1 (stereo not shown) [Example 115],3.49
4,[2H]C([2H])([2H])NC(=O)c1nnc(NC(=O)C2CC2)cc1Nc1cccc(-c2cc(C(=O)N3CC4CN(C)CC4C3)n(C)n2)c1OC (stereo not shown) [Example 491],0.26
5,[2H]C([2H])([2H])NC(=O)c1nnc(NC(=O)C2CC2)cc1Nc1cccc(-c2nc([C@@H](C)NS(C)(=O)=O)no2)c1OC [Example 195],0.72
6,[2H]C([2H])([2H])NC(=O)c1nnc(NC(=O)C2CC2)cc1Nc1cccc(-c2cc(C(=O)NCC(O)CO)n(C)n2)c1OC (stereo not shown) [Example 521],2.41
7,[2H]C([2H])([2H])NC(=O)c1nnc(NC(=O)C2CC2)cc1Nc1cccc(-c2nc(CN3CC4CN(C(=O)OC(C)(C)C)CC4C3)no2)c1OC (stereo not shown) [Example 231],1.75
8,[2H]C([2H])([2H])NC(=O)c1nnc(NC(=O)C2CC2)cc1Nc1cccc(-c2noc(C(=O)NC3CCC(N(C)C)CC3)n2)c1OC (stereo not shown) [Example 24],0.24
9,[2H]C([2H])([2H])NC(=O)c1nnc(NC(=O)C2CC2)cc1Nc1cccc(-c2noc(C(CCC)C(=O)N3CCOCC3)n2)c1OC (stereo not shown) [Example 42],0.23
10,[2H]C([2H])([2H])NC(=O)c1nnc(NC(=O)C2CC2)cc1Nc1cccc(-c2nc(CN3CCOCC3)no2)c1OC [Example 124],0.21
11,COc1c(Nc2cc(NCC3CC3)nnc2C(N)=O)cccc1-c1noc(CNS(C)(=O)=O)n1 [Example 119],> 10
12,[2H]C([2H])([2H])NC(=O)c1nnc(NC(=O)C2CC2)cc1Nc1cccc(-c2nc([C@@H](NC(=O)OC(C)(C)C)[C@@H](C)OC(C)(C)C)no2)c1OC [Example 185],> 10
13,[2H]C([2H])([2H])NC(=O)c1nnc(Nc2cc(C(C)(C)O)ccn2)cc1Nc1cccc(-c2csc(C(=O)NCCOC)n2)c1OC [Example 571],1.76
14,COc1c(Nc2cc(NC(=O)C3CC3)ncc2C#N)cccc1-c1nc(CN2CCN(S(C)(=O)=O)CC2)no1 [Example 578],4.34
15,[2H]C([2H])([2H])NC(=O)c1nnc(NC(=O)C2CC2)cc1Nc1cccc(-c2nc(COCc3ccccc3)no2)c1OC [Example 144],1
16,[2H]C([2H])([2H])NC(=O)c1nnc(NC(=O)C2CC2)cc1Nc1cccc(-c2cc(C(=O)N3CCC(N4CCN(CCO)CC4)CC3)n(C)n2)c1OC [Example 524],3.4
17,[2H]C([2H])([2H])NC(=O)c1nnc(Nc2ccc(OC)nn2)cc1Nc1cccc(-c2ncc(CNS(C)(=O)=O)s2)c1OC [Example 390],0.24

# Further lines, results first:
row,IC50 [µM],SMILES
1,0.015,[2H]C([2H])([2H])NC(=O)c1cnc(NC(=O)C2CC2)cc1Nc1cccc(-c2noc(CN3CCOCC3)n2)c1OC [Example 96]
2,0.023,[2H]C([2H])([2H])NC(=O)c1nnc(Nc2ccc(C)nn2)cc1Nc1cccc(-c2ncc(C(C)O)s2)c1OC (stereo not shown) [Example 392]
3,0.05,[2H]C([2H])([2H])NC(=O)c1nnc(NC(=O)C2CC2)cc1Nc1cccc(-c2noc(CN3CCN(C(=O)OC)CC3)n2)c1OC [Example 14]
4,0.013,[2H]C([2H])([2H])NC(=O)c1nnc(NC(=O)C2CC2)cc1Nc1cccc(-c2ncc(C(=O)NCCN3CCCC(F)C3)s2)c1OC (stereo not shown) [Example 347]
5,0.06,[2H]C([2H])([2H])NC(=O)c1cnc(NC(=O)C2CC2)cc1Nc1cccc(-c2noc(CCOC)n2)c1OC [Example 90]
6,0.04,[2H]C([2H])([2H])NC(=O)c1cnc(Nc2cc(C)ccn2)cc1Nc1cccc(-c2noc(COC)n2)c1OC [Example 99]
7,0.12,COc1c(Nc2cc(NC(=O)C3CC3)nnc2C(N)=O)cccc1-c1ncc(CC(=O)N2CCOCC2)s1 [Example 244]
8,0.14,[2H]C([2H])([2H])NC(=O)c1nnc(NC(=O)C2CC2)cc1Nc1cccc(-c2cnn(CCN)n2)c1OC [Example 448]
9,0.11,[2H]C([2H])([2H])NC(=O)c1nnc(NC(=O)C2CC2)cc1Nc1cccc(-c2nc(CN(C)S(C)(=O)=O)no2)c1OC [Example 169]
10,0.07,[2H]C([2H])([2H])NC(=O)c1nnc(NC(=O)C2CC2)cc1Nc1cccc(-c2ncc(C(=O)N3CCC3)s2)c1OC [Example 313]
11,0.15,COCC(=O)NCCn1ncc(-c2cccc(Nc3cc(NC(=O)C4CC4)ncc3C(N)=O)c2OC)n1 [Example 445]
12,0.1,[2H]C([2H])([2H])NC(=O)c1nnc(NC(=O)C2CC2)cc1Nc1cccc(-c2ncc(C(=O)NC(C)C)s2)c1OC [Example 303]
13,0.18,[2H]C([2H])([2H])NC(=O)c1cnc(NC(=O)C2CC2)cc1Nc1cccc(-c2nc(CCO)no2)c1OC [Example 228]
14,0.018,COc1c(Nc2cc(NC(=O)C3CC3)nnc2C(N)=O)cccc1-c1noc(C(=O)NCCC2CCCN2C)n1 (stereo not shown) [Example 37]
15,0.2,[2H]C([2H])([2H])NC(=O)c1nnc(NC(=O)C2CC2)cc1Nc1cccc(-c2cnn(CCO)n2)c1OC [Example 450]
16,0.15,[2H]C([2H])([2H])NC(=O)c1nnc(NC(=O)C2CC2)cc1Nc1cccc(-c2cc(C(=O)N3CCCC3)n(C)n2)c1OC [Example 482]
17,0.15,"[2H]C([2H])([2H])c1c(NC(=O)C2CC2)nnc(C(N)=O)c1Nc1cccc(-c2nc(CN3CCN(C(C)=O)CC3)no2)c1OC [Example 120, 4-((3-(3-((4-acetylpiperazin-1-yl)methyl)-1,2,4-oxadiazol-5-yl)-2-methoxyphenyl)amino)-6-(cyclopropanecarboxamido)-trideuteromethylpyridazine-3-carboxamide]"
18,0.11,COCCNC(=O)c1cnc(-c2cccc(Nc3cc(NC(=O)C4CC4)nnc3C(N)=O)c2OC)s1 [Example 408]
19,0.11,[2H]C([2H])([2H])NC(=O)c1nnc(NC(=O)C2CC2)cc1Nc1cccc(-c2noc(CN3CCC(O)CC3)n2)c1OC [Example 83]
20,0.15,[2H]C([2H])([2H])NC(=O)c1cnc(Nc2ccc(OC)nn2)cc1Nc1cc(F)cc(-c2cnn(C)n2)c1OC [Example 452]
21,0.04,[2H]C([2H])([2H])NC(=O)c1nnc(NC(=O)C2CC2)cc1Nc1cccc(-c2ncc(C(=O)N3CCC(N4CCCC4)CC3)s2)c1OC [Example 350]
22,0.03,[2H]C([2H])([2H])NC(=O)c1nnc(NC(=O)C2CC2)cc1Nc1cccc(-c2ncc(C(=O)NCCN3CCOCC3)s2)c1OC [Example 321]
23,0.06,[2H]C([2H])([2H])NC(=O)c1nnc(NC(=O)C2CC2)cc1Nc1cccc(-c2ncc(C(=O)NCCN3CCCC(C)C3)s2)c1OC (stereo not shown) [Example 324]
